Read-outs that look alike come from different tables or passages of the source.
How the values were obtained:
[1] = test system: Key Grass and Sedge Weeds as well as Grass Crops; assay: Post-emergent Test II herbicidal activity (Table 16); format: in vivo; conditions: post-emergence, 336 h, 14 d; for pest or weed control at 35 g/ha: 35 g ai/ha; for pest or weed control at 70 g/ha: 70 g ai/ha; for pest or weed control at 140 g/ha: 140 g ai/ha
How it was run: (§1)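 Visual injury rating (0 = none, 100% = complete kill) made 14 d after treatment, relative to untreated plants. Compounds in an acetone/DMSO/aqueous crop-oil/surfactant spray, at top rate and serial 1/2×-1/16× rates, were applied at 187 L/ha overhead to first-second true leaf plants raised 7-21 d in greenhouse.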

[2] = test system: Key Broadleaf Weed and Crop Species; assay: Post-emergent Test II herbicidal activity (Table 15); format: in vivo; conditions: post-emergence, 336 h, 14 d; for pest or weed control at 35 g/ha: 35 g ai/ha; for pest or weed control at 70 g/ha: 70 g ai/ha; for pest or weed control at 140 g/ha: 140 g ai/ha
How it was run: as §1

[3] = Cyperus esculentus, yellow nutsedge (Cyperus esculentus), read-out: Visual Growth Reduction (%) 14 Days After Application, CYPES
[4] = Echinochloa crus-galli, barnyardgrass (Echinochloa crus-galli), read-out: Visual Growth Reduction (%) 14 Days After Application, ECHCG
[5] = Oryza sativa, rice (Oryza sativa), read-out: Visual Growth Reduction (%) 14 Days After Application, ORYSA
[6] = Setaria faberi, giant foxtail (Setaria faberi), read-out: Visual Growth Reduction (%) 14 Days After Application, SETFA
[7] = Triticum aestivum, wheat, spring (Triticum aestivum), read-out: Visual Growth Reduction (%) 14 Days After Application, TRZAS
[8] = Zea mays, maize, corn (Zea mays), read-out: Visual Growth Reduction (%) 14 Days After Application, ZEAMX
[9] = Abutilon theophrasti, velvetleaf (Abutilon theophrasti), read-out: Visual Growth Reduction (%) 14 Days After Application, ABUTH
[10] = Amaranthus retroflexus, redroot pigweed (Amaranthus retroflexus), read-out: Visual Growth Reduction (%) 14 Days After Application, AMARE
[11] = Brassica napus, oilseed rape, canola (Brassica napus), read-out: Visual Growth Reduction (%) 14 Days After Application, BRSNN
[12] = Chenopodium album, lambsquarters (Chenopodium album), read-out: Visual Growth Reduction (%) 14 Days After Application, CHEAL
[13] = Euphorbia heterophylla, wild poinsettia (Euphorbia heterophylla), read-out: Visual Growth Reduction (%) 14 Days After Application, EPHHL
[14] = Helianthus annuus, sunflower (Helianthus annuus), read-out: Visual Growth Reduction (%) 14 Days After Application, HELAN

SMILES	melting point	pest or weed control at 35 g/ha [1, 3]	pest or weed control at 70 g/ha [1, 3]	pest or weed control at 140 g/ha [1, 3]	pest or weed control at 35 g/ha [1, 4]	pest or weed control at 140 g/ha [1, 4]	pest or weed control at 35 g/ha [1, 5]	pest or weed control at 70 g/ha [1, 5]	pest or weed control at 140 g/ha [1, 5]	pest or weed control at 35 g/ha [1, 6]	pest or weed control at 70 g/ha [1, 6]	pest or weed control at 140 g/ha [1, 6]	pest or weed control at 35 g/ha [1, 7]	pest or weed control at 70 g/ha [1, 7]	pest or weed control at 140 g/ha [1, 7]	pest or weed control at 35 g/ha [1, 8]	pest or weed control at 70 g/ha [1, 8]	pest or weed control at 140 g/ha [1, 8]	pest or weed control at 35 g/ha [2, 9]	pest or weed control at 70 g/ha [2, 9]	further results
COC(=O)c1nc(-c2c(F)cc3cc[nH]c3c2F)cc(N)c1Cl [Compound 1.27, Methyl 4-amino-3-chloro-6-(5,7-difluoro-1H-indol-6-yl)picolinate]	169 to 171 °C	0 to 29%	0 to 29%	0 to 29%	0 to 29%	0 to 29%	0 to 29%	0 to 29%	0 to 29%	0 to 29%	0 to 29%	0 to 29%	0 to 29%	0 to 29%	0 to 29%	0 to 29%	0 to 29%	0 to 29%	60 to 74%	85 to 94%	pest or weed control at 70 g/ha [1, 4]: 0 to 29%; pest or weed control at 140 g/ha [2, 9]: 85 to 94%; pest or weed control at 35 g/ha [2, 10]: 60 to 74%; pest or weed control at 70 g/ha [2, 10]: 95 to 100%; pest or weed control at 140 g/ha [2, 10]: 95 to 100%; pest or weed control at 35 g/ha [2, 11]: 85 to 94%; pest or weed control at 70 g/ha [2, 11]: 95 to 100%; pest or weed control at 140 g/ha [2, 11]: 95 to 100%; pest or weed control at 35 g/ha [2, 12]: 85 to 94%; pest or weed control at 70 g/ha [2, 12]: 85 to 94%; pest or weed control at 140 g/ha [2, 12]: 85 to 94%; pest or weed control at 35 g/ha [2, 13]: 95 to 100%; pest or weed control at 70 g/ha [2, 13]: 95 to 100%; pest or weed control at 140 g/ha [2, 13]: 95 to 100%; pest or weed control at 35 g/ha [2, 14]: 0 to 29%; pest or weed control at 70 g/ha [2, 14]: 0 to 29%; pest or weed control at 140 g/ha [2, 14]: 0 to 29%
Cn1ccc2cc(-c3nc(C(=O)O)c(Cl)c(N)c3F)ccc21 [Compound 1.01]	166 to 168 °C	0 to 29%	0 to 29%	0 to 29%	0 to 29%	75 to 84%	0 to 29%	0 to 29%	0 to 29%	0 to 29%	0 to 29%	0 to 29%	0 to 29%	0 to 29%	0 to 29%	0 to 29%	95 to 100%	85 to 94%	0 to 29%	0 to 29%	pest or weed control at 140 g/ha [2, 9]: 30 to 44%; pest or weed control at 70 g/ha [2, 10]: 0 to 29%; pest or weed control at 140 g/ha [2, 10]: 45 to 59%; pest or weed control at 35 g/ha [2, 11]: 0 to 29%; pest or weed control at 70 g/ha [2, 11]: 0 to 29%; pest or weed control at 140 g/ha [2, 11]: 0 to 29%; pest or weed control at 35 g/ha [2, 12]: 0 to 29%; pest or weed control at 70 g/ha [2, 12]: 0 to 29%; pest or weed control at 140 g/ha [2, 12]: 0 to 29%; pest or weed control at 35 g/ha [2, 13]: 95 to 100%; pest or weed control at 70 g/ha [2, 13]: 95 to 100%; pest or weed control at 140 g/ha [2, 13]: 95 to 100%; pest or weed control at 35 g/ha [2, 14]: 0 to 29%; pest or weed control at 70 g/ha [2, 14]: 75 to 84%; pest or weed control at 140 g/ha [2, 14]: 75 to 84%
